Results: patent publication US10022342B2, “Methods and compositions for treating multiple myeloma” (Ohio State Innovation Foundation, priority 2015, dated 2018)

How the values were obtained:
[1] = test system: histone 3 and 4; assay: Immunoblot of acetyl histone H3 and H4 in MM.1S cells; assay type: cell-based, human; conditions: 0.1 μM, 24-hr
Experimental: (§1) Growth inhibitory and pro-apoptotic properties of AR-42 as a single agent treatment agent have been reported previously in numerous malignancies, including MM. Because of the potent immunomodulatory effects observed with classical pan-HDACi's, immunology-related gene networks altered upon AR-42 treatment in MM cells were investigated using nCounter technology to analyze the effects of AR-42 on the expression of 511 human genes in MM.1S cells following 24-hr treatment with 0.1 μM AR-42.
(§2) Cells were harvested by centrifugation, washed with PBS and lysed using buffer composed of 50 mM Tris (pH 7.5), 150 mM NaCl, 10% glycerol, 1.0% NP-40, 0.1% SDS, supplemented with protease and phosphatase inhibitors. Protein concentrations were estimated by Bradford assay and equivalent quantities of the lysates were resolved on 4-20% Tris-HCl SDS-PAGE TGX gels (Bio-Rad). Proteins were transferred to nitrocellulose membranes and stained for acetyl-histone H3 (Milipore), acetyl-histone H4 (Milipore), IGF2BP1 (Cell Signaling Technology), IGF2BP3 (IMP-3, Santa Cruz Biotechnology), CD44 (Santa Cruz Biotechnology), CD48 (Abcam), Drosha (Cell Signaling Technology), or glyceraldehyde 3-phosphate dehydrogenase (GAPDH, Cell Signaling Technology), followed by anti-mouse, or anti-rabbit IgG-HRP (GE Healthcare). Signals were developed using Pierce ECL Western Blotting Substrate (Thermo Fisher Scientific).

[2] = test system: CD44; assay: nCounter GX Human Immunology gene expression in MM.1S cells; assay type: cell-based; conditions: 0.1 μM, 24-hr, p<0.001
Experimental: as §1
Total RNA was prepared using TRIzol (Invitrogen). The RNA was analyzed by nCounter GX Human Immunology Kit, or nCounter Human microRNA Kit, as recommended by the manufacturer (NanoString Technologies, Inc.). A total of 511 immunology related genes and 800 microRNAs were profiled.
Samples analyzed by NanoString assay were normalized using the variance stabilization. The mean linkage hierarchical clustering algorithm was conducted to identify subgroups of significant miRNAs. […] The obtained data were deposited in the GEO database (accession number).

[3] = test system: CD44 mRNA; assay: CD44 mRNA by qRT-PCR in MM cells; assay type: cell-based, human
Experimental: (§3) Reduction of CD44 mRNA and protein persisted for 48 hours after treatment (FIGS. 2C-2D and data not shown).
Quantitative real time-PCR (qRT-PCR) was performed with the TaqMan method (Applied Biosystems), according to the manufacturer's instructions, and analyzed with the 7900HT Sequence Detection System (Applied Biosystems). The appropriate TaqMan probes for mRNA, miRNA, and pri-miRNA quantification were purchased from Applied Biosystems, and all reactions were performed in triplicate. The following probes were used: hsa-miR-9-5p (000583), hsa-mir-9-1 (Hs03303201_pri), hsa-miR-9-2 (Hs03303202_pri), hsa-mir-9-3 (Hs03293595_pri), CD44 (Hs01075861_ml), IGF2BP3 (Hs00559907_g1). Simultaneous quantification of ornithine decarboxylase antizyme 1 (OAZ1), or GAPDH mRNAs were used as a reference for mRNA data normalization, while small endogenous nucleolar RNA U44/U48, or U6 were used for miRNA normalization. The relative expression levels were calculated by the comparative cycle threshold (Ct) method (User Bulletin #2; Applied Biosystems). Expression analyses of pre-miRNA was performed with SYBR green PCR master mix (Applied Biosystems) and normalized for U6 RNA. All primers used for amplification steps are listed in the Supplementary materials and methods.

[4] = test system: CD44; assay: CD44 protein by immunoblot in MM cells; assay type: cell-based, human; conditions: 24-hr treatment, dose-dependent, vs DMSO control
Experimental: as §3, §2

[5] = test system: CD48; assay: CD48 protein and mRNA expression in MM.1S cells; assay type: cell-based, human; conditions: 48 hours
Experimental: The down-regulation of CD44 cell surface expression was also observed by flow cytometry in all MM cell lines tested expressing detectable CD44 levels (FIG. 1D, FIGS. 2E-2F and data not shown).
as §2

[6] = test system: MM.1S cell line; assay: Tumor size in MM.1S subcutaneous xenograft mice; assay type: in vivo; conditions: 25 mg/kg, 2 injections, at sacrifice
Experimental: To investigate if AR-42 treatment could affect CD44 expression in vivo, a xenograft MM mouse model was created by injecting 1×10^7 viable cells of MM.1S cell line subcutaneously into the right flank of 12 NOD-SCID mice. […] One group of mice (n=4) received intra-peritoneal injections of 25 mg/kg AR-42, while the second group (n=4) was injected with vehicle control (8% DMSO in PBS; Ctrl). Injections were administered once a day (on Monday and Wednesday). Because the anti-tumor activity of AR-42 has been previously reported in preclinical mouse studies, mice were sacrificed 2 days after the second injection in order to avoid tumor size reduction. […] Tumors were excised and used for CD44 immunohistochemical (IHC) studies, while the serum was collected for ELISA assays. […] Thus, AR-42 down-regulates CD44 directly in vivo.
Animal experiments were performed according to OSU institutional guidelines. To generate MM xenograft model, 1×10^7 viable MM.1S cells were injected subcutaneously into the right flank of 12 […]. The tumor size was measured once a week using a caliper, and the volume was calculated in cubed millimeters (mm3), using the formula L×W2/2. […] Mice were treated with […] injection of AR-42 (25 mg/kg) or DMSO (8% in PBS) once a day on Monday and Wednesday.

[7] = test system: CD44 promoter region; assay: CD44 promoter luciferase reporter assay; assay type: cell-based, human; conditions: 0.2 μM, 24 hour; MM.1S, U266 and 293T
Experimental: To address the molecular mechanism(s) responsible for downregulation of CD44 gene, the potential role of one or more cis regulatory regions was considered. […] The CD44 3′UTR element was subcloned downstream from the SV40 promoter-driven luciferase gene and transiently transfected the resulting reporter plasmid into MM.1S cells. Incubation of these cells with 0.2 μM AR-42 for 24 hours decreased luciferase activity detecting the activity of the CD44 3′UTR element by 35% as compared to untreated cells (FIG. 5A).
Human CD44 promoter-luciferase reporter gene (CD44P pGL3) was obtained from Addgene (Plasmid 19122). The 3′UTR of CD44 was PCR amplified using following primers:
Hela and 293T cells were transfected with 500 ng of 3′UTR-pGL3-control plasmid and 50 ng of Renilla luciferase expression construct (pRL-TK; Promega), using Lipofectamine 2000 (Invitrogen). After 24 hrs cells were lysed and tested by Dual Luciferase Assay (Promega), according to the manufacturer's instructions. MM.1S cells were transfected with 1.8 μg of pGL3-based luciferase vector and 200 ng of pRL-TK, harvested 24 hrs later and assayed as above.

CC(C)[C@H](C(=O)Nc1ccc(C(=O)NO)cc1)c1ccccc1 [AR-42, (S)-N-hydroxy-4-(3-methyl-2-phenylbutanamido)benzamide]
hyperacetylation of histone 3 and 4 [1]: detectable hyperacetylation
CD44 gene expression (nCounter) [2]: most significantly downregulated
persistence of reduction of CD44 mRNA and protein after treatment [3]: 48 h
CD44 mRNA ([3]; 24-hr treatment, dose-dependent, vs DMSO control): consistently downregulated
CD44 protein levels [4]: consistently downregulated
CD48 protein and mRNA levels [5]: consistent up-regulation
tumor size vs vehicle group [6]: still comparable
activity of CD44 promoter region (luciferase) [7]: did not lower
